Measurements published in BindingDB's records for doi:10.1016/s0960-894x(98)00149-8 (University of Bristol, 1999).

Key:
[1] = biological target: N-succinyl-diaminopimelate aminotransferase (Escherichia coli); test: Compound was tested for binding affinity against N-Succinyl Diaminopimelic Acid Aminotransferase from Escherichia coli
[2] = biological target: N-succinyl-diaminopimelate aminotransferase (Escherichia coli); test: as above; remark: listed apart in the source
[3] = biological target: N-succinyl-diaminopimelate aminotransferase (Escherichia coli); test: Compound was tested for 50% inhibition of N-Succinyl Diaminopimelic Acid Aminotransferase (DAP-AT) from Escherichia coli.

NNC(CCC[C@H](NC(=O)CCC(=O)O)C(=O)O)C(=O)O (stereo partly drawn) [(S)-2-(3-Carboxy-propionylamino)-6-hydrazino-heptanedioic acid]
IC50 [1]: 0.5 µM | Ki [2]: 0.022 µM

CC(=O)N[C@@H](CC(=O)O)C(=O)N[C@@H](CCCC(NN)C(=O)O)C(=O)O (stereo partly drawn) [(S)-2-((S)-2-Acetylamino-3-carboxy-propionylamino)-6-hydrazino-heptanedioic acid]
Ki [2]: 0.169 µM | IC50 [3]: 0.8 µM

CC(=O)N[C@@H](Cc1ccccc1)C(=O)N[C@@H](CCCC(=O)C(=O)O)C(=O)O [dilithium 2-[1-methylcarboxamido-2-phenyl-(1S)-ethylcarboxamido]-6-oxo-(2S)-heptanedioate]
IC50 [1]: > 50000 µM
